Data as given in US20060084135A1, “Compositions for manipulating the lifespan and stress response of cells and organisms” (priority 2003, published 2006).
Values joined by “and” are separate entries in the source; they are usually repeats but may differ in a detail not shown here. Equal entries are not always repeated. Structures can show the parent of a compound that is named as a salt. Where two headings read alike, the source gives them in different places.

Legend:
[1] = biological target: T1, recombinant human SIRT1 (Homo sapiens, UniProt Q96EB6); assay: SIRT1 fluorescent deacetylation assay (p53-382 acetylated peptide substrate); type: biochemical
T1 sequence (Q96EB6 1-747): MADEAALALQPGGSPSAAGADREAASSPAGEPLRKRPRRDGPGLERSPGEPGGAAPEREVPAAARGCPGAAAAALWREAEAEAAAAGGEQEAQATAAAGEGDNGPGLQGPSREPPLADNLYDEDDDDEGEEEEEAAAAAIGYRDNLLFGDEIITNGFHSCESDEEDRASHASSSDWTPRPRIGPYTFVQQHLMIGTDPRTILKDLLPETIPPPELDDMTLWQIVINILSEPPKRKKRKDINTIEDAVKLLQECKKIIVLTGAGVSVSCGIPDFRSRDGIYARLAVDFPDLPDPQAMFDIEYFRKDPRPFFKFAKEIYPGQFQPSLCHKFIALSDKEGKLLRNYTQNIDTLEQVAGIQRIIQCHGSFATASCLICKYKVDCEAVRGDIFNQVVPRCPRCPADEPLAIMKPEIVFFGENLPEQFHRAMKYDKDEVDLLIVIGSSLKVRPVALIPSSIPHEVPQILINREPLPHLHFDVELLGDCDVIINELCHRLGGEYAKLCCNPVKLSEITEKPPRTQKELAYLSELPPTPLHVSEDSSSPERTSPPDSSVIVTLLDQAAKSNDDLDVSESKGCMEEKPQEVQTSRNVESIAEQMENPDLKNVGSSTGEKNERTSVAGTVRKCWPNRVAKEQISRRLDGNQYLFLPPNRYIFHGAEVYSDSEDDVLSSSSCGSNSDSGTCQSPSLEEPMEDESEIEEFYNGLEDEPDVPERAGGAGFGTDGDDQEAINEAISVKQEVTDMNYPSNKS

[2] = tested on: S. cerevisiae; assay: Yeast replicative lifespan; type: cell-based; conditions: 10 μM; for % change in yeast replicative lifespan relative to untreated organisms: 2% glucose YPD, untreated = 100%
Protocol: Average lifespan was determined for wild type untreated (□), quercetin (◯) and piceatannol (●).

[3] = Table 9, resveratrol analogs, 100 μM, 25 μM NAD+, 25 μM p53-382 acetylated peptide
[4] = Supplementary Table 8, compound at 10 μM, 25 μM NAD+, 25 μM p53-382 acetylated peptide
[5] = Supplementary Table 2, flavones part I, 100 μM, 25 μM NAD+, 25 μM p53-382 acetylated peptide
[6] = Table 1, 100 μM compound, 25 μM NAD+, 25 μM p53-382 acetylated peptide
[7] = Supplementary Table 4, isoflavones, flavanones, anthocyanidins, 100 μM, 25 μM NAD+, 25 μM p53-382 acetylated peptide
[8] = Supplementary Table 3, flavones part II, 100 μM, 25 μM NAD+, 25 μM p53-382 acetylated peptide
[9] = Supplementary Table 6, free radical protective compounds, 100 μM, 25 μM NAD+, 25 μM p53-382 acetylated peptide
[10] = Supplementary Table 8, compound at 100 μM, 25 μM NAD+, 25 μM p53-382 acetylated peptide
[11] = Supplementary Table 7, miscellaneous compounds, 100 μM, 25 μM NAD+, 25 μM p53-382 acetylated peptide
[12] = Supplementary Table 1, stilbenes and chalcones, 100 μM, 25 μM NAD+, 25 μM p53-382 acetylated peptide

Oc1cc(O)cc(/C=C/c2ccc(Cl)cc2)c1 [BML-217, 3,5-Dihydroxy-4′-chloro-trans-stilbene]
Ratio to Control Rate Mean ± SE [1, 3]: 10.6 ± 0.4
% change in yeast replicative lifespan relative to untreated organisms [2]: 90%

Oc1ccc(CCc2cc(O)cc(O)c2)cc1 [Dihydroresveratrol, 1-(3,5-Dihydroxyphenyl)-2-(4-hydroxyphenyl) ethane]
Ratio to Control Rate Mean ± SE ([1]; Table 13, resveratrol analogs, 100 μM, 25 μM NAD+, 25 μM p53-382 acetylated peptide): 1.08 ± 0.14

O=c1ccc2cc(O)c(O)cc2o1 [Esculetin]
Ratio to Control Rate Mean ± SE [1, 4]: 1.737 ± 0.082

O=c1c(O)c(-c2ccc(O)c(O)c2)oc2cc(O)ccc12 [Fisetin, 3,7,3′,4′-Tetrahydroxyflavone]
Ratio to Control Rate Mean ± SE [1, 5]: 6.58
Ratio to Control Rate Mean ± SE [1, 6]: 6.58 ± 0.69
Effect on maximum lifespan ([2]; wild type): significantly increased
Increase of average lifespan ([2]; wild type): 55%

O=C1CC(c2ccccc2)Oc2ccccc21 (centres unmarked) [Flavanone]
Ratio to Control Rate Mean ± SE [1, 7]: 1.92 ± 0.24

O=c1cc(-c2ccccc2)oc2ccccc12 [Flavone]
Ratio to Control Rate Mean ± SE [1, 8]: 1.41 ± 0.23

O=c1c(O)c(-c2ccc(O)c(O)c2)oc2c(O)c(O)cc(O)c12 [Gossypetin, 3,5,7,8,3′,4′-Hexahydroxyflavone]
Ratio to Control Rate Mean ± SE [1, 8]: 0.723 ± 0.062

Cl.O.O=C(O)CN(CCN(CC(=O)O)Cc1ccccc1O)Cc1ccccc1O [HBED, N,N′-Di-(2-hydroxybenzyl)ethylenediamine-N,N′-diacetic acid.HCl.H2O, reference compound]
Ratio to Control Rate Mean ± SE [1, 9]: 1.150 ± 0.090

CC(C)c1cccc(=O)c(O)c1 [Hinokitiol, 2-hydroxy-4-isopropyl-2,4,6-cycloheptatrien-1-one]
Ratio to Control Rate Mean ± SE [1, 9]: 2.48 ± 0.15

O=c1c(O)c(-c2ccc(O)cc2)oc2cc(O)cc(O)c12 [Kaempferol, 3,5,7,4′-Tetrahydroxyflavone]
Ratio to Control Rate Mean ± SE [1, 5]: 3.55 ± 0.56

C[N+](C)(C)[C@@H](Cc1c[nH]c(=S)[nH]1)C(=O)[O-] [L-(+)-Ergothioneine, (S)-a-Carboxy-2,3-dihydro-N,N,N-trimethyl-2-thioxo-1H-imidazole-4-ethanaminium inner salt]
Ratio to Control Rate Mean ± SE [1, 9]: 2.06 ± 0.48

O=c1cc(-c2ccc(O)c(O)c2)oc2cc(O)cc(O)c12 [Luteolin, 5,7,3′,4′-Tetrahydroxyflavone]
Ratio to Control Rate Mean ± SE [1, 5]: 5.66 ± 0.80

CC1=NN(c2ccccc2)C(=O)C1 [MCI-186, 3-Methyl-1-phenyl-2-pyrazolin-5-one, reference compound]
Ratio to Control Rate Mean ± SE [1, 9]: 1.2513 ± 0.0080

O=c1c(O)c(-c2ccc(O)cc2O)oc2cc(O)cc(O)c12 [Morin, 3,5,7,2′,4′-Pentahydroxyflavone]
Ratio to Control Rate Mean ± SE [1, 8]: 1.461 ± 0.071

O=c1c(O)c(-c2cc(O)c(O)c(O)c2)oc2cc(O)cc(O)c12 [Myricetin, 3,5,7,3′,4′,5′-Hexahydroxyflavone]
Ratio to Control Rate Mean ± SE [1, 8]: 0.898 ± 0.070

CC(Cc1ccc(O)c(O)c1)C(C)Cc1ccc(O)c(O)c1 (centres unmarked) [NDGA]
Ratio to Control Rate Mean ± SE [1, 10]: 1.738 ± 0.088

O=C(Nc1cccc(C(=O)Nc2ccc(S(=O)(=O)O)c3cc(S(=O)(=O)O)cc(S(=O)(=O)O)c23)c1)Nc1cccc(C(=O)Nc2ccc(S(=O)(=O)O)c3cc(S(=O)(=O)O)cc(S(=O)(=O)O)c23)c1 [NF023, reference compound]
Ratio to Control Rate Mean ± SE [1, 11]: −0.0016

O=C(Nc1ccc(C(=O)Nc2ccc(C(=O)Nc3ccc(S(=O)(=O)O)c4cc(S(=O)(=O)O)cc(S(=O)(=O)O)c34)cc2)cc1)Nc1ccc(C(=O)Nc2ccc(C(=O)Nc3ccc(S(=O)(=O)O)c4cc(S(=O)(=O)O)cc(S(=O)(=O)O)c34)cc2)cc1 [NF279, reference compound]
Ratio to Control Rate Mean ± SE [1, 11]: 0.0035

O=C1CC(c2ccc(O)cc2)Oc2cc(O)cc(O)c21 (centres unmarked) [Naringenin, 5,7,4′-Trihydroxyflavanone]
Ratio to Control Rate Mean ± SE [1, 7]: 2.10 ± 0.23

NC(=O)c1cccnc1 [Nicotinamide, reference compound]
SIRT1 Vmax decrease ([1]; 50 μM nicotinamide, absence of resveratrol, NAD+ or p53-382 peptide varied): 30% and 36%
Ratio to Control Rate Mean ± SE [1, 11]: 0.428

Oc1ccc(-c2[o+]c3cc(O)cc(O)c3cc2O)cc1.[Cl-] [Pelargonidin chloride, 3,5,7.4′-Tetrahydroxyflavylium chloride]
Ratio to Control Rate Mean ± SE [1]: 1.586

Oc1cc(O)cc(/C=C/c2ccc(O)c(O)c2)c1 [Piceatannol, 3,5,3′,4′-Tetrahydroxy-trans-stilbene]
Ratio to Control Rate Mean ± SE [1, 12]: 7.90 ± 0.50
Ratio to Control Rate Mean ± SE [1, 6]: 7.90 ± 0.50
Stimulation of SIRT1 activity ([1]; initial library screen): eight-fold
Effect on lifespan ([2]; wild type): no significant effect

Oc1cc(O)cc(/C=C/c2ccccc2)c1 [Pinosylvin, 3,5-Dihydroxy-trans-stilbene]
Ratio to Control Rate Mean ± SE [1, 3]: 9.95 ± 0.45
% change in yeast replicative lifespan relative to untreated organisms [2]: 114%

O=c1c(O)c(-c2ccc(O)c(O)c2)oc2cc(O)cc(O)c12 [Quercetin, 3,5,7,3′,4′-Pentahydroxyflavone]
Ratio to Control Rate Mean ± SE [1, 5]: 4.59 ± 0.47
Ratio to Control Rate Mean ± SE [1, 6]: 4.59 ± 0.47
Effect on lifespan ([2]; wild type): no significant effect

COc1ccc(/C=C/c2cc(O)cc(O)c2)cc1O [Rhapontin aglycone, 3,5,3′Trihydroxy-4′-methoxy-trans-stilbene]
Ratio to Control Rate Mean ± SE ([1]; Table 11, resveratrol analogs, 100 μM, 25 μM NAD+, 25 μM p53-382 acetylated peptide): 4.060 ± 0.069

COc1ccc(/C=C/c2cc(O)cc(O[C@@H]3O[C@H](CO)[C@@H](O)[C@H](O)[C@H]3O)c2)cc1O [Rhapontin, 3,3′,5-Trihydroxy-4′-methoxystilbene 3-O-β-D-glucoside]
Ratio to Control Rate Mean ± SE [1, 12]: 1.40 ± 0.37

CCCCCCCCCCCCC/C=C/[C@@H](O)[C@@H](N)CO [Sphingosine]
Ratio to Control Rate Mean ± SE ([1]; Supplementary Table 8, compound concentration not given, 25 μM NAD+, 25 μM p53-382 acetylated peptide): 0.069 ± 0.028

Cc1ccc(C(=O)Nc2ccc(S(=O)(=O)O)c3cc(S(=O)(=O)O)cc(S(=O)(=O)O)c23)cc1NC(=O)c1cccc(NC(=O)Nc2cccc(C(=O)Nc3cc(C(=O)Nc4ccc(S(=O)(=O)O)c5cc(S(=O)(=O)O)cc(S(=O)(=O)O)c45)ccc3C)c2)c1 [Suramin, reference compound]
Ratio to Control Rate Mean ± SE [1]: −0.0002

Cc1c(C)c2c(c(C)c1O)CCC(C)(C(=O)O)O2 (centres unmarked) [Trolox, 6-Hydroxy-2,5,7,8-tetramethylchroman-2-carboxylic acid, reference compound]
Ratio to Control Rate Mean ± SE [1, 9]: 0.995 ± 0.019

Cc1ccc(NC(=O)c2cccc(N(C)C)c2)cc1NC(=O)c1ccc(O)cc1 [ZM 336372, reference compound]
Ratio to Control Rate Mean ± SE [1, 10]: 3.5 ± 1.1

C(=C/c1ccccc1)/c1ccccc1 [cis-Stilbene]
Ratio to Control Rate Mean ± SE [1, 12]: 1.14 ± 0.29

C(=C\c1ccccc1)/c1ccccc1 [trans-Stilbene]
Ratio to Control Rate Mean ± SE [1, 12]: 1.48 ± 0.15

Camptothecin [reference compound]
Ratio to Control Rate Mean ± SE [1, 4]: 2.92 ± 0.41
